pEC50: −log10 of the molar value.
Test system: CEM/VLB1000 cell line
Experiment: Cytotoxicity potentiation: enhancement of vinblastine cytotoxicity in MDR cell line (alamar blue)
Type: cell-based, human
Conditions: Homo sapiens, midpoint of minimum and maximum cytotoxicity induced by 3-5 μg/mL vinblastine and compound, 48 hours incubation, alamar blue 24 hours, read-out: Cytotocicity Potentiation (EC50)
Description: Multidrug-resistant cell lines are easily obtainable for in vitro determination of drug sensitization by compounds of the present invention. In vitro potentiation of antineoplastic cytotoxicity by the imidazole derivatives of the present invention was measured in both CEM/VLB1000 and SK/VLB1000 cell lines. The multidrug resistant cell lines were obtained from Dr. Victor Ling, Ontario Cancer Institute, Toronto, Canada. The CEM/VLB 1000 cell line was maintained as a suspension in minimum essential medium supplemented with 10% fetal bovine serum in a humidied atmosphere of 95% air and 5% CO2 while the SK/VLB 1000 cell line was maintained as adherent cells using the identical medium conditions as the CEM cells. The CEM/VLB 1000 cells were seeded at a density of 5×10^4 cells/well in a 96 well microtiter plate while the SK/VLB 1000 cell line was seeded at a density of 2,500 cells/well after trypsinization.

Point of comparison: `CCOC/C=C/c1ccc(-c2nc(-c3ccc(N4CCN(CC)CC4)cc3)c[nH]2)cc1` [Example 126, 2-[4-(3-ethoxy-trans-1-propen-1-yl)phenyl]-4-[4-N-(N'-ethyl)piperizanophenyl) imidazole], pEC50 6.15. Against it:
- CCOC/C=C/c1ccc(-c2nc3cc(OC)ccc3[nH]2)cc1 [Example 118] — within 0.2 log units, 6.00
- CCOC/C=C/c1ccc(-c2nc(-c3ccc(OCC)cc3)c(-c3ccc(OCC)cc3)[nH]2)cc1 [Example 103, 2-[4-(3-ethoxy-trans-1-propen-1-yl)phenyl]-4,5-bis (4-diethoxyphenyl) imidazole] — 0.47 log units higher, 6.62
- CCOC(=O)c1cc(-c2ccc(-c3nc(-c4ccc(N(C)C)cc4)c(-c4ccc(N(C)C)cc4)[nH]3)cc2)no1 [Example 98, 2-[4-(5-ethylcarboxyisoxazol-3-yl)-phenyl]-4,5-bis (4-N,N-dimethylamainophenyl) imidazole] — within 0.2 log units, 6.22
- CCOC/C=C/c1ccc(-c2nc(-c3ccc(NC)cc3)c(-c3ccc(N4CCCC4)cc3)[nH]2)cc1 [Example 91, 2-[4-(3-ethoxy-trans-1-propen-1-yl)phenyl]-4-(4-N-methylaminophenyl)-5(4-pyrrolidinophenyl) imidazole] — 0.81 log units higher, 6.96
- CCCCOC/C=C/c1ccc(-c2nc(-c3ccc(N(C)C)cc3)c(-c3ccc(N(C)C)cc3)[nH]2)cc1 [Example 85, 2-[4-(3-butoxy-trans-1-propen-1-yl)phenyl]-4,5-bis (4-N,N-dimethylaminophenyl) imidazole] — 0.81 log units higher, 6.96
- COCCNc1ccc(-c2[nH]c(-c3ccc(/C=C/c4nc5ccccc5o4)cc3)nc2-c2ccc(N(C)C)cc2)cc1 [Example 61, 2-[trans-2-(2-benzoxazolyl)ethenylphenyl]-4-(4-N,N-dimethylaminophenyl)-5-[4-(2-methoxyethylamino)phenyl] imidazole] — 0.65 log units higher, 6.80
- CCN(CC)Cc1ccc(-c2nc(-c3ccc(/C=C/C(=O)OC)cc3)[nH]c2-c2ccc(CN(CC)CC)cc2)cc1 [Example 100, 2-[4-trans-(2-methoxycarbonyl-ethenyl)phenyl]-4,5-bis (4-N,N-diethylaminomethylphenyl) imidazole] — 0.68 log units lower, 5.47
- CNc1ccc(-c2[nH]c(-c3ccc(/C=C/C(=O)OC)cc3)nc2-c2ccc(N(CCOC)CCOC)cc2)cc1 [Example 69, 2-(trans-2-methoxycarbonyl-ethenylphenyl)-4-[4-N,N-di(2methoxyethyl)aminophenyl]-5-(4-N-methylaminophenyl) imidazole] — 0.33 log units higher, 6.48
- COC(=O)/C=C/c1ccc(-c2nc(-c3ccc(N4CCOCC4)cc3)c(-c3ccc(N4CCOCC4)cc3)[nH]2)cc1 [Example 71, 2-(trans-2-methoxycarbonyl-ethenylphenyl)-4,5-bis (4-N-morpholinophenyl) imidazole] — 0.28 log units higher, 6.43
- CC(=O)/C=C/c1ccc(-c2nc(-c3ccc(N(C)C)cc3)c(-c3ccc(N(C)C)cc3)[nH]2)cc1 [Example 116, 2-[4-(3-methylcarbonyl-trans-1-propen-1-yl)phenyl]-4,5-bis (4-N,N-dimethylaminophenyl) imidazole] — 0.49 log units higher, 6.64
- CCOC/C=C/c1ccc(-c2nc(-c3ccc(OC)cc3)c[nH]2)cc1 [Example 109, 2-[4-(3-ethoxy-trans-1-propen-1-yl)phenyl]-4-(4-methoxyphenyl) imidazole] — 0.42 log units lower, 5.73
- COC/C=C/c1ccc(-c2nc(-c3ccc(N4CCCC4)cc3)c(-c3ccc(N4CCCC4)cc3)[nH]2)cc1 [Example 88, 2-[4-(3-methoxy-trans-1-propen-1-yl)phenyl]-4,5-bis (4-pyrrolidinophenyl) imidazole] — 0.44 log units higher, 6.59
- CN(C)c1ccc(-c2nc(-c3ccc(N4CCOCC4)cc3)[nH]c2-c2ccc(N(C)C)cc2)cc1 [Example 97, 2-(4-N-morpholinophenyl)-4,5-bis (4-N,N-dimnethylaminophenyl) imidazole] — 0.57 log units higher, 6.72
- CCOC/C=C/c1ccc(-c2nc(-c3ccc(OC)cc3)c(-c3ccc(OC)cc3)[nH]2)cc1 [Example 102, 2-[4-(3-ethoxy-trans-1-propen-1-yl)phenyl]-4,5-bis (4-dimethoxyphenyl) imidazole] — 0.31 log units higher, 6.46
- CCOC/C=C/c1ccc(-c2nc(-c3ccc(N(C)C)cc3)c(-c3ccc(N4CCCC4)cc3)[nH]2)cc1 [Example 90, 2-[4-(3-ethoxy-trans-1-propen-1-yl)phenyl]-4-(4-N-dimethylaminophenyl)-5-(4-pyrrolidinophenyl) imidazole] — 0.77 log units higher, 6.92
- C=CCN(CC=C)c1ccc(-c2nc(-c3ccc(/C=C/C(=O)OC)cc3)[nH]c2-c2ccc(F)cc2)cc1 [Example 66, 2-(trans-2-methoxycarbonyl-ethenylphenyl)-4-(4-N,N-diallylaminophenyl)5-(4-fluoro-phenyl) imidazole] — within 0.2 log units, 6.07
- CCOC/C=C/c1ccc(-c2nc(-c3ccc(N(CC)CC)cc3)c(-c3ccc(N(CC)CC)cc3)[nH]2)cc1 [Example 86, 2-[4-(3-ethoxy-trans-1-propen-1-yl)phenyl]-4,5-bis (4-N,N-diethylaminophenyl) imidazole] — 0.44 log units higher, 6.59
- CCN(CC)Cc1ccc(-c2[nH]c(-c3ccc(/C=C/C(=O)OC)cc3)nc2-c2ccc(C)cc2)cc1 [Example 99, 2-[4-trans-(2-methoxycarbonyl-ethenyl)phenyl]-4-(p-tolyl)-5-(4-N,N-diethylaminomethylphenyl) imidazole] — 0.39 log units higher, 6.54
- CCOC/C=C/c1ccc(-c2nc(-c3ccc(N4CCOCC4)cc3)c[nH]2)cc1 [Example 125, 2-[4-(3-ethoxy-trans-1-propen-1-yl)phenyl]-4-(4-N-morpholinophenyl) imidazole] — 0.28 log units higher, 6.43
- CCCN(CCC)c1ccc(-c2c[nH]c(-c3ccc(/C=C/COCC)cc3)n2)cc1 [Example 122, 2-[4-(3-ethoxy-trans-1-propen-1-yl)phenyl]-4-(4-N,N-dipropylphenyl) imidazole] — 0.40 log units higher, 6.55
- CNc1ccc(-c2nc(-c3ccc(/C=C/C(=O)OC)cc3)[nH]c2-c2ccc(N3CCOCC3)cc2)cc1 [Example 73, 2-(trans-2-methoxycarbonyl-ethenylphenyl)-4-(4-N-methylaminophenyl)5-(4-N-morpholinophenyl) imidazole] — 0.32 log units higher, 6.47
- CN(C)C/C=C/c1ccc(-c2nc(-c3ccc(N(C)C)cc3)c(-c3ccc(N(C)C)cc3)[nH]2)cc1 [Example 83, 2-[4-(3-N,N-dimethylamino-trans-1-propen-1-yl)phenyl]-4,5-bis (4-N,N-dimethylaminophenyl) imidazole] — 0.26 log units lower, 5.89
- CNc1ccc(-c2nc(-c3ccc(/C=C/C(=O)OC)cc3)[nH]c2-c2ccc(N3CCCC3)cc2)cc1 [Example 67, 2-(trans-2-methoxycarbonyl-ethenylphenyl)-4-(4-N-methylaminophenyl)5-(4-pyrrolidinophenyl) imidazole] — 0.86 log units higher, 7.01
- CCOC/C=C/c1ccc(-c2nc(-c3ccc(OC(C)C)cc3)c(-c3ccc(OC(C)C)cc3)n2CCCn2ccnc2)cc1 [Example 107, 1-(3-imidazole-1-yl-propyl)-2-[4-(3-ethoxy-trans-1-propen-1-yl)phenyl]-4,5bis (4-diisopropyloxyphenyl) imidazole] — within 0.2 log units, 6.31
- COC(=O)/C=C/c1ccc(-c2nc(-c3ccc(N(C)C)cc3)c(-c3ccc(N4CCOCC4)cc3)[nH]2)cc1 [Example 72, 2-(trans-2-methoxycarbonyl-ethenylphenyl)-4-(4-N-dimethylaminophenyl)-5-(4-N-morpholinophenyl) imidazole] — 0.34 log units higher, 6.49
- CCOC/C=C/c1ccc(-c2nc(-c3ccc(NC)cc3)c(-c3ccc(N4CCOCC4)cc3)[nH]2)cc1 [Example 94, 2-[4-(3-ethoxy-trans-1-propen-1-yl)phenyl]-4-(4-N-methylaminophenyl) -5(4-N-morpholinophenyl) imidazole] — 0.45 log units higher, 6.60
- CNc1ccc(-c2[nH]c(-c3ccc(/C=C/c4nc5ccccc5s4)cc3)nc2-c2ccc(N(C)C)cc2)cc1 [Example 63, 2-[trans-2-(2-benzthiazolyl)ethenylphenyl]-4-(4-N-dimethylaminophenyl)-5-(4-N-methylaminophenyl) imidazole] — 0.34 log units higher, 6.49
- CCOC/C=C/c1ccc(-c2nc(-c3ccc(NC(C)C)cc3)c(-c3ccc(NC(C)C)cc3)[nH]2)cc1 [Example 119, 2-[4-(3-ethoxy-trans-1-propen-1-yl)phenyl]-4,5-bis-(4-N-isopropylaminophenyl) imidazole] — 1.02 log units higher, 7.17
- CN(C)c1ccc(-c2nc(-c3ccc(/C=C/CO)cc3)n(C)c2-c2ccc(N(C)C)cc2)cc1 [Example 114, 1-methyl-2-[4-(3-hydroxy-trans-1-propen-1-yl)phenyl]-4,5-bis (4-N,N-dimethylaminophenyl) imidazole] — within 0.2 log units, 6.20
- CN(C)c1ccc(-c2nc(-c3ccc(/C=C/S(C)(=O)=O)cc3)[nH]c2-c2ccc(N(C)C)cc2)cc1 [Example 96, 2-[4-trans-(2-methanesulfonyl-ethenyl)-phenyl]-4,5-bis (4-N,N-dimethylaminophenyl) imidazole] — within 0.2 log units, 6.14

Same assay, conditions: midpoint of minimum and maximum cytotoxicity induced by 3-5 μg/mL vinblastine and compound, 48 hours incubation, alamar blue 24 hours, read-out: Cytotocicity Potentiation (EC50)

Point of comparison: `CNc1ccc(-c2[nH]c(-c3ccc(/C=C/COc4ccc(OC)c(OC)c4)cc3)nc2-c2ccc(N(C)C)cc2)cc1` [Example 79, 2-{4-[3-(3,4-dimethoxy-phenoxy)-trans-1-propen-1-yl]phenyl}-4-(4-N-dimethylaminophenyl)-5-(4-N-methylaminopheny) imidazole], pEC50 5.92. Against it:
- CNc1ccc(-c2[nH]c(-c3ccc(/C=C/COc4ccccc4)cc3)nc2-c2ccc(N(C)C)cc2)cc1 [Example 78, 2-[4-(3-phenoxy-trans-1-propen-1-yl)phenyl]-4-(4-N-dimethylaminophenyl)-5-(4-N-methylaminopheny) imidazole] — 0.43 log units higher, 6.35

Reference: patent US5840721A, “Imidazole derivatives as MDR modulators” (Ontogen Corporation, priority 1997, dated 1998)
